Test results taken from patent publication US20260356841A1, “HETEROCYCLIC PYRIDINONE COMPOUNDS AS TRIGGERING RECEPTOR EXPRESSED ON MYELOID CELLS 2 AGONISTS AND METHODS OF USE” (Vigil Neuroscience, Inc., priority 2023, published 2026).

biological target: T1, human TREM2 (Homo sapiens, UniProt Q9NZC2); experiment: TREM2 agonist potency by cellular phosphorylation of Spleen Tyrosine Kinase (Syk), AlphaLisa, HEK293T-hTREM2 cells; format: cell-based; conditions: not given
T1 construct: expressed in transfected cells; host or cells: HEK293T (HEK293T-hTREM2 cells)
Method in brief: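 HEK293T cells co-expressing human TREM2 and DAP12, plated 20–24 h before use. Compounds applied 45 min at room temperature in assay buffer, then cells lysed and phospho-Syk quantified by AlphaLisa. Percent activation from a standard curve; EC50 from a four-parameter variable-slope fit.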

T1 sequence (Q9NZC2 19-230): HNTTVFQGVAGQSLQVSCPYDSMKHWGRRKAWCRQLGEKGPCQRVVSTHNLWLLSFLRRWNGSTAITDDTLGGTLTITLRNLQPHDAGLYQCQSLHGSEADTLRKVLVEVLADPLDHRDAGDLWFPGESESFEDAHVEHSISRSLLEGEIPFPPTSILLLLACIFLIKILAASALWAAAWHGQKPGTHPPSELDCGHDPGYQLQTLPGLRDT
T1 sequence (O43914 22-113 partner): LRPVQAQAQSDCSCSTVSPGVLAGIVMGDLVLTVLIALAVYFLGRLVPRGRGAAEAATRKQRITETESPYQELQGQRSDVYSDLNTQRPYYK

EC50 | SMILES
< 100 nM | [2H]C([2H])([2H])C([2H])(n1cc([C@H]2C[C@@H](c3nc(C45CC(C(F)(F)F)(C4)C5)c4nc(C)c(C)nc4n3)CCO2)ccc1=O)C([2H])([2H])[2H] [Example 88, 5-[(2R,4S)-4-[6,7-dimethyl-4-[3-(trifluoromethyl)-1-bicyclo[1.1.1]pentanyl]pteridin-2-yl]tetrahydropyran-2-yl]-1-[1,2,2,2-tetradeuterio-1-(trideuteriomethyl)ethyl]pyridin-2-one]

same assay, conditions: hTREM2 EC50 Data (HEK293 Cells); Syk phosphorylation, AlphaLisa; read-out: hTREM2 EC50

EC50 | SMILES
< 100 nM | Cc1nc2nc([C@@H]3CCO[C@H](c4ccc(=O)n(C(C)C)c4)C3)nc(C34CC(C(F)(F)F)(C3)C4)c2nc1C [Example 78, 1-isopropyl-5-[(2S,4R)-4-[6,7-dimethyl-4-[3-(trifluoromethyl)-1-bicyclo[1.1.1]-pentanyl]pteridin-2-yl]tetrahydropyran-2-yl]pyridin-2-one]
< 100 nM | Cc1nc2nc([C@H]3CCO[C@@H](c4ccc(=O)n(N)c4)C3)nc(C34CC(C(F)(F)F)(C3)C4)c2cc1C(F)(F)F [Example 332, 1-amino-5-((2R,4S)-4-(7-methyl-6-(trifluoromethyl)-4-(3-(trifluoromethyl)bicyclo[1.1.1]pentan-1-yl)pyrido[2,3-d]pyrimidin-2-yl)tetrahydro-2H-pyran-2-yl)pyridin-2 (1H)-one]
< 100 nM | Cc1nc2nc([C@H]3CCO[C@@H](c4ccc(=O)n(C5CC5)c4)C3)nc(C34CC(C(F)(F)F)(C3)C4)c2cc1C(F)(F)F [Example 328, 1-cyclopropyl-5-((2R,4S)-4-(7-methyl-6-(trifluoromethyl)-4-(3-(trifluoromethyl)bicyclo[1.1.1]-pentan-1-yl)pyrido[2,3-d]pyrimidin-2-yl)tetrahydro-2H-pyran-2-yl)pyridin-2(1H)-one]
< 100 nM | Cc1nc2nc(C3CCO[C@@H](c4ccc(=O)n(N(C)C)c4)C3)nc(C34CC(C(F)(F)F)(C3)C4)c2nc1C(F)F (stereo in doubt) [Example 220, 5-((2R,4R)-4-(6-(difluoromethyl)-7-methyl-4-(3-(trifluoromethyl)bicyclo[1.1.1]pentan-1-yl)pteridin-2-yl)tetrahydro-2H-pyran-2-yl)-1-(dimethylamino)pyridin-2(1H)-one]
< 100 nM | Cc1nc2nc(C3CCO[C@@H](c4ccc(=O)n(-c5cscn5)c4)C3)nc(C34CC(C(F)(F)F)(C3)C4)c2nc1C (mixture of isomers) [Example 109, 5-((2R)-4-(6,7-dimethyl-4-(3-(trifluoromethyl)bicyclo-[1.1.1]pentan-1-yl)pteridin-2-yl)tetrahydro-2H-pyran-2-yl)-1-(thiazol-4-yl)pyridin-2(1H)-one]
< 100 nM | Cc1nc2nc([C@H]3CCO[C@@H](c4ccc(=O)n(CC#N)c4)C3)nc(C34CC(C(F)(F)F)(C3)C4)c2nc1C [Example 86, 2-[5-[(2R,4S)-4-[6,7-dimethyl-4-[3-(trifluoromethyl)-1-bicyclo[1.1.1]pentanyl]pteridin-2-yl]tetrahydropyran-2-yl]-2-oxo-1-pyridyl]acetonitrile]
100 to 500 nM | Cc1cnc2c(C34CC(C(F)(F)F)(C3)C4)nc([C@H]3CCO[C@@H](c4ccc(=O)[nH]c4)C3)nc2n1 [Example 187, 5-((2R,4S)-4-(7-methyl-4-(3-(trifluoromethyl)bicyclo[1.1.1]pentan-1-yl)pteridin-2-yl)tetrahydro-2H-pyran-2-yl)pyridin-2(1H)-one]
< 100 nM | COc1nc2c(-c3ccc(C(F)(F)F)cc3F)nc([C@@H]3CCO[C@H](c4ccc(=O)n(C)c4)C3)nc2nc1C [Example 130, 1-methyl-5-[(2S,4R)-4-[4-[2-fluoro-4-(trifluoromethyl)phenyl]-6-methoxy-7-methyl-pteridin-2-yl]tetrahydropyran-2-yl]pyridin-2-one]
< 100 nM | Cc1nc2nc([C@H]3CCO[C@@H](c4ccc(=O)n(C)c4)C3)nc(C34CC(CCF)(C3)C4)c2nc1C [Example 48, 5-((2R,4S)-4-(4-(3-(2-fluoroethyl)bicyclo[1.1.1]pentan-1-yl)-6,7-dimethylpteridin-2-yl)tetrahydro-2H-pyran-2-yl)-1-methylpyridin-2(1H)-one]
< 100 nM | Cc1nc2c(C34CC(C(F)(F)F)(C3)C4)nc([C@@H]3CCO[C@H](c4ccc(=O)n(C)c4)C3)nc2nc1C1CC1 [Example 156, 1-methyl-5-[(2S,4R)-4-[7-cyclopropyl-6-methyl-4-[3-(trifluoro-methyl)-1-bicyclo[1.1.1]pentanyl]pteridin-2-yl]tetrahydropyran-2-yl]pyridin-2-one]
< 100 nM | COc1nc2c(C34CC(C(F)(F)F)(C3)C4)nc([C@H]3CCO[C@@H](c4ccc(=O)n(CC#N)c4)C3)nc2nc1C [Example 145, 2-[5-[(2R,4S)-4-[6-methoxy-7-methyl-4-[3-(trifluoromethyl)-1-bicyclo-[1.1.1]pentanyl]pteridin-2-yl]tetrahydropyran-2-yl]-2-oxo-1-pyridyl]acetonitrile]
< 100 nM | CN(C)c1nc2nc([C@@H]3CCO[C@H](c4ccc(=O)n(C)c4)C3)nc(-c3ccc(F)cc3F)c2s1 [Example 14, 5-[(2S,4R)-4-[7-(2,4-difluorophenyl)-2-(dimethylamino)thiazolo[4,5-d]pyrimidin-5-yl]tetrahydropyran-2-yl]-1-methyl-pyridin-2-one]
< 100 nM | Cc1nc2nc([C@H]3CCO[C@@H](c4ccc(=O)n(CC(F)F)c4)C3)nc(C34CC(C(F)(F)F)(C3)C4)c2nc1C [Example 71, 1-(2,2-difluoroethyl)-5-[(2R,4S)-4-[6,7-dimethyl-4-[3-(trifluoromethyl)-1-bicyclo[1.1.1]pentanyl]pteridin-2-yl]tetrahydropyran-2-yl]pyridin-2-one]
< 100 nM | Cc1nc2nc([C@@H]3CCO[C@H](c4ccc(=O)n(C5CC5)c4)C3)nc(C34CC(C(F)(F)F)(C3)C4)c2nc1C [Example 75, 1-cyclopropyl-5-[(2S,4R)-4-[6,7-dimethyl-4-[3-(trifluoromethyl)-1-bicyclo[1.1.1]-pentanyl]-pteridin-2-yl]tetrahydropyran-2-yl]pyridin-2-one]
< 100 nM | Cc1nc2nc([C@H]3CCO[C@@H](c4ccc(=O)n(C)c4)C3)nc(-c3cc(F)c(C(F)(F)F)cc3F)c2nc1C [Example 350]
< 100 nM | Cc1nc2nc([C@H]3CCO[C@@H](c4ccc(=O)n(C(C)C)c4)C3)nc(-c3ccc(C(F)(F)F)cc3F)c2nc1C [Example 68, 1-isopropyl-5-[(2R,4S)-4-[4-[2-fluoro-4-(trifluoromethyl)-phenyl]-6,7-dimethyl-pteridin-2-yl]tetrahydropyran-2-yl]pyridin-2-one]
< 100 nM | Cc1nc2nc(N3C[C@@H](C)O[C@@H](c4ccc(=O)n(C)c4)C3)nc(C34CC(C(F)(F)F)(C3)C4)c2nc1C [Example 62, 5-[(2S,6R)-4-[6,7-dimethyl-4-[3-(trifluoro-methyl)-1-bicyclo[1.1.1]pentanyl]pteridin-2-yl]-6-methyl-morpholin-2-yl]-1-methyl-pyridin-2-one]
< 100 nM | C=CCN(CC=C)n1cc([C@H]2C[C@@H](c3nc(C45CC(C(F)(F)F)(C4)C5)c4nc(C)c(C)nc4n3)CCO2)ccc1=O [Example 206, 1-(diallylamino)-5-[(2R,4S)-4-[6,7-dimethyl-4-[3-(trifluoromethyl)-1-bicyclo[1.1.1]pentanyl]pteridin-2-yl]tetrahydropyran-2-yl]pyridin-2-one]
100 to 500 nM | Cc1cnc2nc([C@H]3CCO[C@@H](c4ccc(=O)[nH]c4)C3)nc(C34CC(C(F)(F)F)(C3)C4)c2n1 [Example 197, 5-((2R,4S)-4-(6-methyl-4-(3-(trifluoromethyl)bicyclo[1.1.1]pentan-1-yl)pteridin-2-yl)tetrahydro-2H-pyran-2-yl)pyridin-2(1H)-one]
100 to 500 nM | Cc1nc2cc(N3C[C@@H](C)O[C@@H](c4ccc(=O)[nH]c4)C3)nc(-c3ccc(F)cc3F)c2nc1C [Example 186, 5-((2S,6R)-4-(5-(2,4-difluorophenyl)-2,3-dimethylpyrido[3,4-b]pyrazin-7-yl)-6-methylmorpholin-2-yl)pyridin-2(1H)-one]
< 100 nM | COCCn1cc([C@H]2C[C@@H](c3nc(C45CC(C(F)(F)F)(C4)C5)c4nc(C)c(C)nc4n3)CCO2)ccc1=O [Example 82, 5-[(2R,4S)-4-[6,7-dimethyl-4-[3-(trifluoromethyl)-1-bicyclo[1.1.1]pentanyl]pteridin-2-yl]tetrahydropyran-2-yl]-1-(2-methoxyethyl)pyridin-2-one]
< 100 nM | Cc1nc2c(C34CC(C(F)(F)F)(C3)C4)nc([C@H]3CCO[C@@H](c4ccc(=O)n(C)c4)C3)nc2nc1C1CC1 [Example 155, 1-methyl-5-[(2R,4S)-4-[7-cyclopropyl-6-methyl-4-[3-(trifluoro-methyl)-1-bicyclo[1.1.1]pentanyl]-pteridin-2-yl]tetrahydropyran-2-yl]pyridin-2-one]
< 100 nM | CNn1cc([C@H]2C[C@@H](c3nc(C45CC(C(F)(F)F)(C4)C5)c4nc(C)c(C)nc4n3)CCO2)ccc1=O [Example 179, 5-[(2R,4S)-4-[6,7-dimethyl-4-[3-(trifluoromethyl)-1-bicyclo[1.1.1]pentanyl]pteridin-2-yl]tetrahydropyran-2-yl]-1-(methylamino)pyridin-2-one]
< 100 nM | Cc1nc2nc([C@H]3CCO[C@@H](c4ccc(=O)n(C)c4)C3)nc(C34CC(C(F)F)(C3)C4)c2nc1C [Example 31, 5-[(2R,4S)-4-[4-[3-(difluoromethyl)-1-bicyclo[1.1.1]-pentanyl]-6,7-dimethyl-pteridin-2-yl]-tetrahydropyran-2-yl]-1-methyl-pyridin-2-one]
< 100 nM | COc1nc2c(C3CCCCC3)nc([C@H]3CCO[C@@H](c4ccc(=O)n(C)c4)C3)nc2nc1C [Example 136, 5-[(2R)-4-(4-cyclohexyl-6-methoxy-7-methyl-pteridin-2-yl)tetrahydropyran-2-yl]-1-methyl-pyridin-2-one]
